Read-outs that look alike come from different tables or passages of the source.
Tests used:
TLR8 = target: T1, TLR8 (Homo sapiens, UniProt Q9NR97); experiment: In vitro human TLR8 binding reporter assay (HEK-Blue, NF-kB/AP1-inducible SEAP); assay type: cell-based; conditions: activity range class, read-out: TLR8 Agonist EC50
T1 construct: human HEK-Blue cells co-expressing a TLR7 or TLR8 gene
T1 sequence (Q9NR97 27-1041): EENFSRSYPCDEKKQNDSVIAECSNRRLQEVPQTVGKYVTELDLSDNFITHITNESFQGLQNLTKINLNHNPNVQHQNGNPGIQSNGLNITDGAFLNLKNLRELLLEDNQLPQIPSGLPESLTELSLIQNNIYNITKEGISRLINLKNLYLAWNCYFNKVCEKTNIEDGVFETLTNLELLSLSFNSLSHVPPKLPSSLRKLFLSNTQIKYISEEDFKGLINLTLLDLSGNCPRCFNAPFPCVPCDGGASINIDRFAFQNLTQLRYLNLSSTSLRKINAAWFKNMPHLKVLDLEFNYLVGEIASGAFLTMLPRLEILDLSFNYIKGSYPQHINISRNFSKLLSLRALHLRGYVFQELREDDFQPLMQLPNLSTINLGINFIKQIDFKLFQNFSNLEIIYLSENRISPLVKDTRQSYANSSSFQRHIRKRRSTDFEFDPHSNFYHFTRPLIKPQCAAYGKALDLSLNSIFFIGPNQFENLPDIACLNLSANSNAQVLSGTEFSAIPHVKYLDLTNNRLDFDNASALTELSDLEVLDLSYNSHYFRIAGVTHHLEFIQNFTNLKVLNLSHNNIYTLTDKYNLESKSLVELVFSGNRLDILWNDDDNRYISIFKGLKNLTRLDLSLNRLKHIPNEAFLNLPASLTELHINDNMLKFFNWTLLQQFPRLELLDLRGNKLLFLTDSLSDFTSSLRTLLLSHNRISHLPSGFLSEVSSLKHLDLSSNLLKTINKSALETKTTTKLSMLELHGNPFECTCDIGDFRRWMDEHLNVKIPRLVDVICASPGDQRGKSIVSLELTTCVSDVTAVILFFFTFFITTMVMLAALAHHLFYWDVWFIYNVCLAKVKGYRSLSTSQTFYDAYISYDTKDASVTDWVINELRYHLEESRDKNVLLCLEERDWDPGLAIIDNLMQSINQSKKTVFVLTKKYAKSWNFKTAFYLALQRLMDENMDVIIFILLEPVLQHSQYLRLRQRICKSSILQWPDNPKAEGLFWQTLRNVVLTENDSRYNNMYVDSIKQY
Protocol: (§1) In Vitro Human TLR7 and TLR8 Binding Reporter Assays
(§2) Logarithmically-growing human HEK-Blue cells co-expressing a TLR7 or TLR8 gene and a NF-kB/AP1-inducible SEAP (secreted embryonic alkaline phosphatase; Invivogen, San Diego, CA) reporter gene are added to individual wells of a 384-well plate (15,000 cells per 20 μL per well) and maintained for 24 h at 37° C., 5% CO2. Test compounds or DMSO are distributed to separate wells the next day using acoustic liquid handling technology (100 nL per well) and cells are subsequently incubated for 18 h at 37° C., 5% CO2. Cellular SEAP production is measured using an Envision plate reader instrument thirty minutes after adding freshly-made Quanti-Blue reagent (prepared by following manufacturer instructions; Invivogen, San Diego, CA) to the HEK-Blue TLR Nf-kB-SEAP cell reactions. All EC50 values (half-maximal effective concentration) are determined using proprietary data analysis software. Normalized EC50 value=absolute value determined by setting 100% Ymax using a reference standard RLU (relative light unit) values from cells treated with 50 μM of the reference standard.

TLR7 = target: T2, TLR7 (Homo sapiens, UniProt Q9NYK1); experiment: In vitro human TLR7 binding reporter assay (HEK-Blue, NF-kB/AP1-inducible SEAP); assay type: cell-based; conditions: activity range class, read-out: TLR7 Agonist EC50
T2 construct: human HEK-Blue cells co-expressing a TLR7 or TLR8 gene
T2 sequence (Q9NYK1 27-1049): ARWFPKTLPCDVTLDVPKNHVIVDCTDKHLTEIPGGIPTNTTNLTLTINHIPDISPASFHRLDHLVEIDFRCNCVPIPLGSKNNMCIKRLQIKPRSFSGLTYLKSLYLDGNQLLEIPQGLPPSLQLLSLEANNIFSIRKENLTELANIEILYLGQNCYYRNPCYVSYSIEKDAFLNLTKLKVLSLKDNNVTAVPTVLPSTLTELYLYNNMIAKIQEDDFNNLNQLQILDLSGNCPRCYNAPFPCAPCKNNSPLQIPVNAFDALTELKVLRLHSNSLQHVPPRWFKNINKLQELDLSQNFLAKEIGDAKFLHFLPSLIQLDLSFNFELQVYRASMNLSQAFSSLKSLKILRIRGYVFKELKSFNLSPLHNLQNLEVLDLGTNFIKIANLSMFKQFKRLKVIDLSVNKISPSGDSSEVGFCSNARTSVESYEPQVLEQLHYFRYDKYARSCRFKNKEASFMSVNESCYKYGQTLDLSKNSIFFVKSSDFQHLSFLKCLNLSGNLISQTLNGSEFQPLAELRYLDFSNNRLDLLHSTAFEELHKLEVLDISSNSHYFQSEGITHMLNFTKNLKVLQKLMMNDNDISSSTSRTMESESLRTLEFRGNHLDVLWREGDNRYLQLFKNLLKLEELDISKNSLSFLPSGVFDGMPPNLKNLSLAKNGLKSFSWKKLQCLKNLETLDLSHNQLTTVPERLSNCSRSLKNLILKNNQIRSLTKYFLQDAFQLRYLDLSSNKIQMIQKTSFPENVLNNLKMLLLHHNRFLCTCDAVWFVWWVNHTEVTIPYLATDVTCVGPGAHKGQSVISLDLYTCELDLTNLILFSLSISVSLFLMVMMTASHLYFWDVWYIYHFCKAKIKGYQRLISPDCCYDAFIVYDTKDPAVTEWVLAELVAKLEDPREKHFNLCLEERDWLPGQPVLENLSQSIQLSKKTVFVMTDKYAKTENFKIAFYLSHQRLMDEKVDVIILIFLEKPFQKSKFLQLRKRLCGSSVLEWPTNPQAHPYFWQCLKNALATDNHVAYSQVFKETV
Protocol: as §1, §2

THP-1 cells = experiment: Measurement of IL-1β production, hTRF protocol (second alternative procedure), THP-1 cells; assay type: cell-based, human; conditions: human, read-out: NLRP3 hILIB EC50
Protocol: Measurement of IL-1β Production—hTRF Protocol (Second Alternative Procedure)
Serial dilutions of compounds in DMSO were added to low volume 384 well plates at 100 nl/well using an ECHO 550 acoustic dispenser (Labcyte) to achieve final starting concentration of 10 μM in assay.
THP-1 cells in RPMI (Gibco, 11875) media with 10% FBS at a density of 1×10^6 cell/ml in a T175 flask were treated with a final concentration of phorbol 12-myristate 13-acetate (PMA) (Sigma, P1585) of 50 ng/ml overnight at 37° C. at 5% CO2 for differentiation. Cells were harvested the next day after rinsing well with dPBS using 0.5% trypsin. A cell solution was prepared of 1×10^6 cells/ml for 50,000 cells in 50 μl/well in RPMI media with 2% FBS. Cells were plated using a multichannel pipette onto the compound dilutions in Greiner, 384 well, black clear bottom tissue culture treated plates (781090). The plates were incubated in 37° C. incubator at 5% CO2 for 2 hours.
After the 2 hour incubation, the cell plates were spun in the centrifuge for 5 minutes at 1200 rpm. Using the Felix (CyBio), 8 μl of the supernatant was transferred to 384 well, low volume, white proxy plates. (Perkin Elmer, 6008230). A human IL1beta hTRF kit was used to analyze the supernatant (CISBIO, 62HIL1BPEG). The kit instructions were followed for preparing the IL1Beta standard curve and then the antibodies from the kit were diluted 1:40 rather than 1:20 as kit instructed. Once combined, the antibodies were added across the plates, 5 μl/well. The plates were sealed and incubated at 4° C. overnight. The plates were then read on the Perkin Elmer EnVision at 665/615 nm using the hTRF laser.

[1] = Homo sapiens, THP-1, IL-1β production

Structure (SMILES) | EC50 (TLR8) | EC50 (TLR7) | EC50 (THP-1 cells; [1]) | EC50 (THP-1 cells; IL-1β production)
CC(=O)NC(C)Cn1cc2c(N)nc3cc(-c4ccn[nH]4)ccc3c2n1 (single isomer, unassigned) [Example 300] | > 100 µM | > 100 µM | – | 7.36 µM
Nc1nc2cc(-c3cc[nH]n3)ccc2c2nn(C3CCCC3O)cc12 (single isomer, unassigned) [Example 314] | > 100 µM | > 100 µM | 0.49 µM | –
Nc1nc2cc(-c3cc[nH]n3)ccc2c2nn(C3CCCC3O)cc12 (single isomer, unassigned) [Example 315] | > 100 µM | > 100 µM | – | 0.89 µM
Nc1nc2cc(-c3cc[nH]n3)ccc2c2nn(C3CCCC3O)cc12 (single isomer, unassigned) [Example 316] | > 100 µM | > 100 µM | – | 0.89 µM
Nc1nc2cc(-c3cc[nH]n3)ccc2c2nn(C3CCCCC3O)cc12 (single isomer, unassigned) [Example 318] | > 100 µM | > 100 µM | – | 3.09 µM
Nc1nc2cc(-c3ccn[nH]3)ccc2c2oc(CCCOCc3ccccc3)nc12 [Example 146, 2-[3-(benzyloxy)propyl]-7-(1H-pyrazol-3-yl)-[1,3]oxazolo[4,5-c]quinolin-4-amine] | – | – | 7.94 µM | –
Nc1nc2cc(-c3cc[nH]n3)ccc2c2cc(CCCO)oc12 [Example 148, 3-[4-amino-7-(1H-pyrazol-3-yl)furo[2,3-c]quinolin-2-yl]propan-1-ol] | – | – | 2.03 µM | –
NCCc1cc2c(N)nc3cc(-c4ccn[nH]4)ccc3c2[nH]1 [Example 152, 2-(2-aminoethyl)-7-(1H-pyrazol-5-yl)-1H-pyrrolo[3,2-c]quinolin-4-amine] | – | – | 3.79 µM | –
Nc1nc2cc(-n3cccn3)ccc2c2cn(CCNC(=O)c3ccc(F)cn3)nc12 [Example 184] | – | > 100 µM | 0.1 µM | –

The next lines start with the values.

EC50 (TLR8) | EC50 (TLR7) | EC50 (THP-1 cells; [1]) | EC50 (THP-1 cells; IL-1β production) | Structure (SMILES)
> 100 µM | > 100 µM | 0.09 µM | – | Nc1nc2cc(-c3cc[nH]n3)ccc2c2nn(C3CCOC3)cc12 (racemic) [Example 237]
> 100 µM | > 100 µM | 0.33 µM | – | Nc1nc2cc(-c3cc[nH]n3)ccc2c2nn([C@@H]3CC[C@H](O)C3)cc12 (relative stereo) [Example 210, cis-3-(4-amino-7-(1H-pyrazol-3-yl)-2H-pyrazolo[4,3-c]quinolin-2-yl)cyclopentan-1-ol]
> 100 µM | > 100 µM | 25.8 µM | – | CN1CCOC(C(=O)NCCn2cc3c(n2)c(N)nc2cc(-c4cc[nH]n4)ccc23)C1 (single isomer, unassigned) [Example 179]
> 100 µM | > 100 µM | – | 36.7 µM | CN1CCOC(C(=O)NCCn2cc3c(n2)c(N)nc2cc(-c4cc[nH]n4)ccc23)C1 (single isomer, unassigned) [Example 180]
> 100 µM | > 100 µM | – | 0.72 µM | Nc1nc2cc(-c3cc[nH]n3)ccc2c2nn(C3CCOC3)cc12 (single isomer, unassigned) [Example 238]
> 100 µM | > 100 µM | – | 0.21 µM | Nc1nc2cc(-c3cc[nH]n3)ccc2c2nn(C3CCOC3)cc12 (single isomer, unassigned) [Example 239]
> 100 µM | > 100 µM | 0.26 µM | – | CC(CCO)n1cc2c(N)nc3cc(-c4cc[nH]n4)ccc3c2n1 (single isomer, unassigned) [Example 287, 3-(4-amino-7-(1H-pyrazol-3-yl)-2H-pyrazolo[4,3-c]quinolin-2-yl)butan-1-ol]
> 100 µM | > 100 µM | – | 0.45 µM | CC(CCO)n1cc2c(N)nc3cc(-c4cc[nH]n4)ccc3c2n1 (single isomer, unassigned) [Example 288, 3-(4-amino-7-(1H-pyrazol-3-yl)-2H-pyrazolo[4,3-c]quinolin-2-yl)butan-1-ol]
> 100 µM | > 100 µM | – | 2.92 µM | CC(=O)NC(C)Cn1cc2c(N)nc3cc(-c4ccn[nH]4)ccc3c2n1 (single isomer, unassigned) [Example 299]

— patent US12037344B2, “NLRP3 modulators” (INNATE TUMOR IMMUNITY, INC., priority 2018, dated 2024)
